{"source": "patent US20220288052A1", "about": "“COMPOUND FOR COMBINATION TREATMENT” (priority 2019, published 2022)", "key": {"5-HT transporter": {"biological_target": "5-HT transporter (Rattus norvegicus, UniProt P31652)", "sequence (P31652 whole entry)": "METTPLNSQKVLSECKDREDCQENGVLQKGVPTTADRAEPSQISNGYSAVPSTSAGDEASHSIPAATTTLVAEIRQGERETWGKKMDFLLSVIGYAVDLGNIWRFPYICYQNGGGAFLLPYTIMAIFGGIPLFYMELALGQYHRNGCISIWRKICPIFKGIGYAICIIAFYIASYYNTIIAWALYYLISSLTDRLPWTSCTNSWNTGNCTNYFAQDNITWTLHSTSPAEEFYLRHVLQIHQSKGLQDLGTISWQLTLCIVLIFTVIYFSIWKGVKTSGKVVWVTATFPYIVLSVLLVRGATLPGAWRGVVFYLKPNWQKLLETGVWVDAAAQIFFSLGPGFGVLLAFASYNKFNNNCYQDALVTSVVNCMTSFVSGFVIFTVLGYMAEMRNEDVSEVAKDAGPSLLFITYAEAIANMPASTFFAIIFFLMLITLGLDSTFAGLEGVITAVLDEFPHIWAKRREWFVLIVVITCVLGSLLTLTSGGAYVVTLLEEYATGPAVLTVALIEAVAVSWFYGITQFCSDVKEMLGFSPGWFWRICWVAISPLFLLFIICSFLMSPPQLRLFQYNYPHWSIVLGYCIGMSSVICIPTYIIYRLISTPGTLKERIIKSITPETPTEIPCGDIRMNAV", "assay": "^3H-uptake rat, 5-HT transporter", "type": "biochemical", "text": "Compound (I) has been characterized as a monoamine reuptake inhibitor, based on the profile in a series of functional assays (Table 2)."}, "[1]": {"system": "brain levels of dopamine (DA)", "assay": "In vivo microdialysis, DA", "design": "species or system rat", "procedure": "The purpose of the present study was to examine, by in vivo microdialysis technique, the effects after administration of compound (I) on brain levels of serotonin, noradrenalin and dopamine within the ventral hippocampus (Hipp), prefrontal cortex (PFC), striatum (STR) and nucleus accumbens (N.Acc) of anaesthetized rats and mice. Compound (I) represents dual acting serotonin/dopamine reuptake inhibitors and was tested in comparison to citalopram a selective serotonin uptake inhibitor. Compound (I) was tested following subcutaneous injections at dose levels between 0.25-30 mg/kg. […] Pre-treatment with the 5-HT1A autoreceptor antagonist WAY-100635 induced a further minor increase of the compound (I) (0.25 mg/kg) induced increase in the PFC level of 5-HT. […]"}, "mice": {"system": "mice", "assay": "Mouse zero maze (mZM)", "type": "in vivo", "details": "mZero maze, p.o.", "procedure": "Mice were treated (peroral administration) for 7 days with either, vehicle, duloxetine (10 mg/kg), and compound I (0.1 mg/kg, 1 mg/kg, and 3 mg/kg) (n=8 in each group).\nCompound (I) was tested in three widely used behavioural screens for predicting anxiolytic effects in the clinic: the mouse marble burying test (mMB), mouse zero maze (mZM) and mouse stress-induced hyperthermia test (mSIH)."}, "[2]": {"assay": "Linearity after single p.o. dose in mouse", "type": "in vivo", "details": "for AUC(0-inf) / bioavailability / half-life: female, NMRI, mouse; for AUC(0-inf) / bioavailability / half-life / Cmax / Tmax: plasma, po; for bioavailability: compared to 10 mg/kg i.v.; for half-life: read-out: T½ (converted); for Cmax / Tmax: female NMRI mouse; for Tmax: 5% Tween 80"}, "[3]": {"assay": "Linearity after single s.c. dose in rat", "type": "in vivo", "details": "for AUC(0-inf) / Cmax / bioavailability / half-life: Wistar, rat; for AUC(0-inf) / Cmax / bioavailability / half-life / Tmax: plasma, sc; for half-life: read-out: T½ (converted); for Tmax: male Wistar rat, 5% Tween 80"}, "[4]": {"assay": "Metabolic stability in liver microsomes, mouse", "type": "in vitro ADME", "procedure": "(§1) The metabolic stability of compound (I) was tested in liver microsomes from all in house available species at 1 and 5 μM. One metabolite of 16 mass units higher than parent, was found in all incubations, except with human liver microsomes."}, "[5]": {"assay": "Metabolic stability in liver microsomes, minipig", "type": "in vitro ADME", "procedure": "as §1"}, "[6]": {"system": "rat corpus cavernosum strips", "assay": "Corpus cavernosum contractility", "procedure": "FIG. 29: Original traces showing the effect of compound (I) on resting tone in rat corpus cavernosum strips. Increasing concentrations (10^−9-3×10^−5 M) of compound (I) were added. Compound (I) induced small relaxations, while at the highest concentration (3×10^−5 M) contraction was observed occasionally (lower trace).\nFIG. 30: Average results showing the effect of compound (I) on resting tone in rat corpus cavernosum strips. Increasing concentrations (10^−9-3×10^−5 M) of compound (I) were added. Compound (I) induced small relaxations, while at the highest concentration (3×10^−5 M) contraction was observed occasionally (lower trace). Compound (I) responses were obtained in the presence of vehicle, sildenafil (10^−7 M), guanethidine (10^−5 M), and L-NOARG (10^−4 M). Results are means±s.e. mean of preparations from 5 rats.\nFIG. 31: Original traces showing relaxations to compound (I) in rat corpus cavernosum strips contracted with phenylephrine (Phe). Representative traces show compound (I) relaxation in the presence of vehicle, guanethidine (10^−5 M), L-NOARG (10^−4 M), sildenafil (10^−7 M), in phenylephrine-contracted preparations.\nFIG. 32: Average relaxations induced by compound (I) in rat corpus cavernosum strips. In phenylephrine-contracted preparations, increasing concentrations (10^−9-3×10^−5 M) of compound (I). […]"}, "[7]": {"assay": "Cardiovascular safety in anaesthetised dogs", "quoted_text": "Data presented are mean±s.e. mean where n=4 for all time points, excluding D2t7 where n=3, D3t7 where n=2, and D4t7 and D4t26 where no data was available. Animals received 1, 3, 10, and 30 mg/kg compound (I) as 4 intravenous infusions (starting at t0, D1t30, D2t30 and D3t30, respectively). Each dose was administered over 5 min, using an infusion pump, and the dose volume for each treatment was 2 ml/kg, with the exception of the fourth dose which was 3 ml/kg.\nData presented are mean±s.e. mean where n=4 for all time points, excluding D4t7 and D4t26 where no data was available. Animals received 1, 3, 10, and 30 mg/kg compound (I) as 4 intravenous infusions (starting at t0, D1t30, D2t30 and D3t30, respectively). Each dose was administered over 5 min, using an infusion pump, and the dose volume for each treatment was 2 ml/kg, with the exception of the fourth dose which was 3 ml/kg."}}, "data": [{"smiles": "O=c1ccc2ccc(O[C@@H]3C[C@H]4CC[C@@H](C3)N4)cc2o1", "note": "[Compound (I), exo-7-(8-aza-bicyclo[3.2.1]oct-3-yloxy)-chromen-2-one]", "values": [{"measurement": "IC50", "setting": "5-HT transporter", "result": 0.45, "unit": "nM"}, {"measurement": "DA (AUC0-160 min)", "setting": "[1]; Hippocampus, 3 mg/kg s.c., 3 mg/kg", "result": "142±36", "unit": "%"}, {"measurement": "DA (AUC0-160 min)", "setting": "[1]; N.Acc, 10 mg/kg s.c., 10 mg/kg", "result": "192±42", "unit": "%"}, {"measurement": "DA (AUC0-160 min)", "setting": "[1]; N.Acc, 30 mg/kg s.c., 30 mg/kg", "result": "604±88", "unit": "%"}, {"measurement": "DA (AUC0-160 min)", "setting": "[1]; Pre-frontal cortex, 1 mg/kg s.c., 1 mg/kg", "result": "132±9", "unit": "%"}, {"measurement": "DA (AUC0-160 min)", "setting": "[1]; Pre-frontal cortex, 10 mg/kg s.c., 10 mg/kg", "result": "211±40", "unit": "%"}, {"measurement": "DA (AUC0-160 min)", "setting": "[1]; Pre-frontal cortex, WAY100365 0.1 mg/kg + compound (I) 0.25 mg/kg", "result": "55 ± 2", "unit": "%"}, {"measurement": "DA (AUC0-160 min)", "setting": "[1]; Striatum, 3 mg/kg s.c., 3 mg/kg", "result": "137±21", "unit": "%"}, {"measurement": "DA (AUC0-160 min)", "setting": "[1]; Striatum, 10 mg/kg s.c., 10 mg/kg", "result": "134±43", "unit": "%"}, {"measurement": "Kinetic pattern of DA increase in microdialysis (nucleus accumbens)", "setting": "[1]; rats, 30 mg/kg s.c., compared to bupropion 10 mg/kg s.c. and cocaine 25 mg/kg i.p.", "result": "slower kinetic pattern"}, {"measurement": "MED", "setting": "mice; acute, −60 min", "result": ">10", "unit": "mg/kg"}, {"measurement": "MED", "setting": "mice; 7 days OD", "result": "<0.3", "unit": "mg/kg"}, {"measurement": "AUC(0-inf)", "setting": "[2]; 30 mg/kg p.o.", "result": 14.3, "unit": "µg·h/mL"}, {"measurement": "bioavailability", "setting": "[2]; 30 mg/kg p.o.", "result": 206, "unit": "%"}, {"measurement": "half-life", "setting": "[2]; 30 mg/kg p.o.", "result": 306, "unit": "min"}, {"measurement": "AUC(0-inf)", "setting": "[2]; 60 mg/kg p.o.", "result": 34.7, "unit": "µg·h/mL"}, {"measurement": "bioavailability", "setting": "[2]; 60 mg/kg p.o.", "result": 250, "unit": "%"}, {"measurement": "half-life", "setting": "[2]; 60 mg/kg p.o.", "result": 366, "unit": "min"}, {"measurement": "Linearity of kinetics (AUC versus dose)", "setting": "[2]; mice, relatively high doses p.o., single dose", "result": "tendency to sub-linear kinetics"}, {"measurement": "Cmax", "setting": "[2]; 30 mg/kg p.o.", "result": 3.08, "unit": "µg/mL"}, {"measurement": "Tmax", "setting": "[2]; 30 mg/kg p.o.", "result": 30, "unit": "min"}, {"measurement": "Cmax", "setting": "[2]; 60 mg/kg p.o.", "result": 4.15, "unit": "µg/mL"}, {"measurement": "Tmax", "setting": "[2]; 60 mg/kg p.o.", "result": 30, "unit": "min"}, {"measurement": "AUC(0-inf)", "setting": "[3]; 1 mg/kg s.c.", "result": 0.125, "unit": "µg·h/mL"}, {"measurement": "Cmax", "setting": "[3]; 1 mg/kg s.c.", "result": 0.069, "unit": "µg/mL"}, {"measurement": "bioavailability", "setting": "[3]; 1 mg/kg s.c., compared to 10 mg/kg i.v. in same vehicle", "result": 117, "unit": "%"}, {"measurement": "half-life", "setting": "[3]; 1 mg/kg s.c.", "result": 40.2, "unit": "min"}, {"measurement": "Cmax", "setting": "[3]; 5 mg/kg s.c.", "result": 0.32, "unit": "µg/mL"}, {"measurement": "bioavailability", "setting": "[3]; 5 mg/kg s.c., compared to 10 mg/kg i.v. in same vehicle", "result": 113, "unit": "%"}, {"measurement": "half-life", "setting": "[3]; 5 mg/kg s.c.", "result": 46.2, "unit": "min"}, {"measurement": "Cmax", "setting": "[3]; 10 mg/kg s.c.", "result": 0.729, "unit": "µg/mL"}, {"measurement": "bioavailability", "setting": "[3]; 10 mg/kg s.c., compared to 10 mg/kg i.v. in same vehicle", "result": 108, "unit": "%"}, {"measurement": "half-life", "setting": "[3]; 10 mg/kg s.c.", "result": 40.8, "unit": "min"}, {"measurement": "bioavailability", "setting": "[3]; s.c. dosing in rats", "result": "~100", "unit": "%"}, {"measurement": "AUC(0-inf)", "setting": "[3]; male, 5 mg/kg s.c.", "result": 0.604, "unit": "µg·h/mL"}, {"measurement": "AUC(0-inf)", "setting": "[3]; male, 10 mg/kg s.c.", "result": 1.15, "unit": "µg·h/mL"}, {"measurement": "Tmax", "setting": "[3]; 1 mg/kg s.c.", "result": 60, "unit": "min"}, {"measurement": "Tmax", "setting": "[3]; 5 mg/kg s.c.", "result": 60, "unit": "min"}, {"measurement": "Tmax", "setting": "[3]; 10 mg/kg s.c.", "result": 30, "unit": "min"}, {"measurement": "Linearity of kinetics (AUC versus dose)", "setting": "[3]; rats s.c., relatively low doses, single dose", "result": "very nice linear kinetics"}, {"measurement": "Stability at 1 μM", "setting": "[4]", "result": 89, "unit": "%"}, {"measurement": "Stability at 5 μM", "setting": "[4]", "result": 100, "unit": "%"}, {"measurement": "Stability at 1 μM", "setting": "[5]", "result": 88, "unit": "%"}, {"measurement": "Stability at 5 μM", "setting": "[5]", "result": 98, "unit": "%"}, {"measurement": "Effect on resting tone", "setting": "[6]; resting corpus cavernosum strips, 10^−9-3×10^−5 M", "result": "only small relaxations"}, {"measurement": "Relaxation of contracted strips", "setting": "[6]; strips contracted with phenylephrine (10^−6 M)", "result": "concentration-dependent relaxations were observed at higher concentrations"}, {"measurement": "Heart rate", "setting": "[7]; 1, 3, 10 and 30 mg/kg i.v.", "result": "Dose-dependent increases"}, {"measurement": "RR interval", "setting": "[7]; 1, 3, 10 and 30 mg/kg i.v.", "result": "dose-dependent decreases"}, {"measurement": "Arterial blood pressure (mean, systolic and diastolic)", "setting": "[7]; 1, 3, 10 and 30 mg/kg i.v., apparent decrease following 10 and 30 mg/kg", "result": "No consistent changes"}, {"measurement": "PR interval and QRS duration", "setting": "[7]; 1, 3, 10 and 30 mg/kg i.v., potential PR shortening at 30 mg/kg", "result": "relatively unaffected"}, {"measurement": "concentration at 5 min", "setting": "[7]; beagle, dog, plasma, intravenous", "result": "6.5 to 15", "unit": "µg/mL"}, {"measurement": "QTcF and QTcV intervals", "setting": "[7]; corrected for heart rate/RR interval, also when paced at 90 or 110 bpm", "result": "clear dose-dependent increase"}]}]}
